# Source: patent US20070129281A1, “Pharmaceutical compounds” (priority 2003, published 2007)
# Entries after “also recorded” stand apart in the source; their conditions may differ.
# Molecular target: T1, PTP1B catalytic domain (residues 1-321) (Homo sapiens, UniProt P18031)
# T1 construct: crystallisation of the catalytic domain of PTP1B (residues 1-321) were based on literature conditions; made in house; host or cells: E. coli BL21(DE3), vector pET19b
# T1 sequence (P18031 1-321): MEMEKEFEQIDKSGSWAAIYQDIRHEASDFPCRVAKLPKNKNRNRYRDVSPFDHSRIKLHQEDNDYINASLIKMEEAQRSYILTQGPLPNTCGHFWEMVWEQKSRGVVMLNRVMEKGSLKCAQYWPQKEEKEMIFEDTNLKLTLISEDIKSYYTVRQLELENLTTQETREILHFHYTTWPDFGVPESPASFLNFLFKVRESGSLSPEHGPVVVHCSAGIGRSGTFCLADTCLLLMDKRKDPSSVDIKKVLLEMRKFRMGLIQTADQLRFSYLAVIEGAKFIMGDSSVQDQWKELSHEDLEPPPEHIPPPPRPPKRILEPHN
# Assay: Crystal soaking of PTP1B crystals with X-ray structure determination (oxidation state of Cys215)
# Settings: for State of the catalytic Cys215 / active site of PTP1B in the crystal after soaking (X-ray data): crystals soaked about 24 hours in mother liquor without DTT containing 100 mM compound
# Procedure: For overnight soaking experiments crystals were transferred into a standard mother liquor containing 16% PEG 4000, 0.1 M HEPES (pH 7.5), 0.2 M magnesium acetate, 10 mM DTT and the compound of interest (See Table 3 below).
# All data were collected at 100 K. Data sets of sulfenic- sulfinic- and sulfonic acid PTP1B derivatives were automatically collected on a Jupiter140 CCD detector mounted on a RU3HR rotating anode generator equipped with an ACTOR sample-changing robot (RigakuMSC, The Woodlands Tex., USA). They were processed and scaled using D*TREK^21 and converted to structure factors using programs from the CCP4 suite^22.
# Oxidation of Cys215 to the sulfenyl-amide derivative was carried out by soaking crystals for approximately 24 hours in mother liquor without DTT, but containing 100 mM 2-phenyl-isoxazolidine-3,5-dione. Data were collected at station 14.1 (SRS, Daresbury) and processed and scaled using MOSFLM/SCALA^22.
# Reversibility of the sulfenyl-amide derivative was checked by first soaking two crystals in 100 mM 2-phenyl-isoxazolidine-3,5-dione for 24 hours.
# All results were evaluated using the graphics programs QUANTA (Accelrys, San Diego Calif., USA) and Astexviewer™^23. Initial refinement was always carried out using the CCP4-based Astex automatic refinement scripts, followed by rounds of positional and B-factor refinement with REFMAC5^22 alternated with manual rebuilding steps using QUANTA.
State of the catalytic Cys215 / active site of PTP1B in the crystal after soaking (X-ray data),SMILES,"State of the catalytic Cys215 / active site of PTP1B in the crystal after soaking (X-ray data) (listed as 2-Phenyl-isoxazolidine-3,5-dione)","Active site conformation of sulfenyl-amide PTP1B crystal after back soaking (reversibility, X-ray data) (back soaking 24 hours in mother liquor containing 20 mM reduced glutathione, after a 100 mM 2-phenyl-isoxazolidine-3,5-dione soak)"
Sulfenyl-amide formation was confirmed,"O=C1CC(=O)N(c2ccccc2)O1 [2-phenyl-isoxazolidine-3,5-dione]",confirmed the formation of the sulfenyl-amide bond,–
–,"N[C@@H](CCC(=O)N[C@@H](CS)C(=O)NCC(=O)O)C(=O)O [reduced glutathione, glutathione]",–,entire active site back in its native conformation; also recorded: confirmed the active site in its native conformation
